The values below are quoted from earlier work in US9795640B2, “Controlling appetite, promoting weight loss, reducing body fat, and/or improving glucose tolerance” (VANDERBILT UNIVERSITY, priority 2011, dated 2017).

SMILES strings stand for the structures.

For this data set the following is noted: intraperitoneal administration; for obesity: animals fed a high-fat diet.

In the case of `CCCCCCCC/C=C\CCCCCCCC(=O)NCCO` [OEA, N-oleoyl-ethanolamide], the food intake entry is listed as “markedly reduces” and the obesity entry is recorded as “markedly reduces”.

For the compound `CCCCCCCCCCCCCCCCCC(=O)NCCO` [SEA, N-stearoyl-ethanolamide], the food intake result is listed as “markedly reduces” and the obesity result was “markedly reduces”.
